Results: PubChem BioAssay AID1259407 (Chemical Carcinogenesis Research Information System (CCRIS), 2018)
Activity calls are given as the source filed them. No rule for the calls is given here.

System: CCRIS mutagenicity, Ames/micronucleus/aberration tests
Assay: CCRIS mutagenicity studies
[1] = Test System: MOUSE LYMPHOMA, Strain/Indicator: L5178Y (TK+/TK-), Metabolic Activation: NONE, Method: SUSPENSION/PLATE

Measured: mutagenic call

CCC(C)=O
inactive: Test System: AMES SALMONELLA TYPHIMURIUM, Strain/Indicator: TA97, Metabolic Activation: HAMSTER, LIVER, S-9, AROCLOR 1254 (10 OR 30%), Method: PREINCUBATION inactive; negative | Test System: AMES SALMONELLA TYPHIMURIUM, Strain/Indicator: TA97, Metabolic Activation: NONE, Method: PREINCUBATION inactive; negative | Test System: AMES SALMONELLA TYPHIMURIUM, Strain/Indicator: TA97, Metabolic Activation: RAT, LIVER, S-9, AROCLOR 1254 (10 OR 30%), Method: PREINCUBATION inactive; negative | Test System: AMES SALMONELLA TYPHIMURIUM, Strain/Indicator: TA98, Metabolic Activation: HAMSTER, LIVER, S-9, AROCLOR 1254 (10 OR 30%), Method: PREINCUBATION inactive; negative | Test System: AMES SALMONELLA TYPHIMURIUM, Strain/Indicator: TA98, Metabolic Activation: RAT, LIVER, S-9, AROCLOR 1254 (10 OR 30%), Method: PREINCUBATION inactive; negative | Test System: AMES SALMONELLA TYPHIMURIUM, Strain/Indicator: TA98, Metabolic Activation: RAT, LIVER, S-9, AROCLOR 1254, Method: PREINCUBATION inactive; negative | Test System: AMES SALMONELLA TYPHIMURIUM, Strain/Indicator: TA98, Metabolic Activation: RAT, LIVER, S-9, KC 500, Method: PREINCUBATION inactive; negative | Test System: AMES SALMONELLA TYPHIMURIUM, Strain/Indicator: TA98, Metabolic Activation: RAT, LIVER, S-9, PHENOBARBITAL AND BETA-NAPHTHOFLAVONE, Method: PREINCUBATION inactive; negative | Test System: AMES SALMONELLA TYPHIMURIUM, Strain/Indicator: TA100, Metabolic Activation: HAMSTER, LIVER, S-9, AROCLOR 1254 (10 OR 30%), Method: PREINCUBATION inactive; negative | Test System: AMES SALMONELLA TYPHIMURIUM, Strain/Indicator: TA100, Metabolic Activation: RAT, LIVER, S-9, AROCLOR 1254 (10 OR 30%), Method: PREINCUBATION inactive; negative | Test System: AMES SALMONELLA TYPHIMURIUM, Strain/Indicator: TA100, Metabolic Activation: RAT, LIVER, S-9, AROCLOR 1254, Method: PREINCUBATION inactive; negative | Test System: AMES SALMONELLA TYPHIMURIUM, Strain/Indicator: TA100, Metabolic Activation: RAT, LIVER, S-9, KC 500, Method: PREINCUBATION inactive; negative | Test System: AMES SALMONELLA TYPHIMURIUM, Strain/Indicator: TA100, Metabolic Activation: RAT, LIVER, S-9, PHENOBARBITAL AND BETA-NAPHTHOFLAVONE, Method: PREINCUBATION inactive; negative | Test System: AMES SALMONELLA TYPHIMURIUM, Strain/Indicator: TA102, Metabolic Activation: NONE, Method: PREINCUBATION inactive; negative | Test System: AMES SALMONELLA TYPHIMURIUM, Strain/Indicator: TA102, Metabolic Activation: RAT, LIVER, S-9, PHENOBARBITAL AND BETA-NAPHTHOFLAVONE, Method: PREINCUBATION inactive; negative | Test System: AMES SALMONELLA TYPHIMURIUM, Strain/Indicator: TA104, Metabolic Activation: NONE, Method: PREINCUBATION inactive; negative | Test System: AMES SALMONELLA TYPHIMURIUM, Strain/Indicator: TA104, Metabolic Activation: RAT, LIVER, S-9, PHENOBARBITAL AND BETA-NAPHTHOFLAVONE, Method: PREINCUBATION inactive; negative | Test System: AMES SALMONELLA TYPHIMURIUM, Strain/Indicator: TA1535, Metabolic Activation: HAMSTER, LIVER, S-9, AROCLOR 1254 (10 OR 30%), Method: PREINCUBATION inactive; negative | Test System: AMES SALMONELLA TYPHIMURIUM, Strain/Indicator: TA1535, Metabolic Activation: RAT, LIVER, S-9, AROCLOR 1254 (10 OR 30%), Method: PREINCUBATION inactive; negative | Test System: AMES SALMONELLA TYPHIMURIUM, Strain/Indicator: TA1535, Metabolic Activation: RAT, LIVER, S-9, AROCLOR 1254, Method: PREINCUBATION inactive; negative | Test System: AMES SALMONELLA TYPHIMURIUM, Strain/Indicator: TA1535, Metabolic Activation: RAT, LIVER, S-9, KC 500, Method: PREINCUBATION inactive; negative | Test System: AMES SALMONELLA TYPHIMURIUM, Strain/Indicator: TA1535, Metabolic Activation: RAT, LIVER, S-9, PHENOBARBITAL AND BETA-NAPHTHOFLAVONE, Method: PREINCUBATION inactive; negative | Test System: AMES SALMONELLA TYPHIMURIUM, Strain/Indicator: TA1537, Metabolic Activation: HAMSTER, LIVER, S-9, AROCLOR 1254 (30%), Method: PREINCUBATION inactive; negative | Test System: AMES SALMONELLA TYPHIMURIUM, Strain/Indicator: TA1537, Metabolic Activation: RAT, LIVER, S-9, AROCLOR 1254 (30%), Method: PREINCUBATION inactive; negative | Test System: AMES SALMONELLA TYPHIMURIUM, Strain/Indicator: TA1537, Metabolic Activation: RAT, LIVER, S-9, AROCLOR 1254, Method: PREINCUBATION inactive; negative | Test System: AMES SALMONELLA TYPHIMURIUM, Strain/Indicator: TA1537, Metabolic Activation: RAT, LIVER, S-9, KC 500, Method: PREINCUBATION inactive; negative | Test System: AMES SALMONELLA TYPHIMURIUM, Strain/Indicator: TA1537, Metabolic Activation: RAT, LIVER, S-9, PHENOBARBITAL AND BETA-NAPHTHOFLAVONE, Method: PREINCUBATION inactive; negative | Test System: AMES SALMONELLA TYPHIMURIUM, Strain/Indicator: TA1538, Metabolic Activation: NONE, Method: PREINCUBATION inactive; negative | Test System: AMES SALMONELLA TYPHIMURIUM, Strain/Indicator: TA1538, Metabolic Activation: RAT, LIVER, S-9, AROCLOR 1254, Method: PREINCUBATION inactive; negative | Test System: AMES SALMONELLA TYPHIMURIUM, Strain/Indicator: TA1538, Metabolic Activation: RAT, LIVER, S-9, KC 500, Method: PREINCUBATION inactive; negative | Test System: E. COLI, Strain/Indicator: WP2UVRA/PKM101, Metabolic Activation: NONE, Method: PREINCUBATION inactive; negative | Test System: E. COLI, Strain/Indicator: WP2UVRA/PKM101, Metabolic Activation: RAT, LIVER, S-9, PHENOBARBITAL AND BETA-NAPHTHOFLAVONE, Method: PREINCUBATION inactive; negative | Test System: E. COLI, Strain/Indicator: WP2 UVRA, Metabolic Activation: NONE, Method: PREINCUBATION inactive; negative | Test System: E. COLI, Strain/Indicator: WP2UVRA, Metabolic Activation: NONE, Method: PREINCUBATION inactive; negative | Test System: E. COLI, Strain/Indicator: WP2 UVRA, Metabolic Activation: RAT, LIVER, S-9, KC 500, Method: PREINCUBATION inactive; negative | Test System: E. COLI, Strain/Indicator: WP2UVRA, Metabolic Activation: RAT, LIVER, S-9, PHENOBARBITAL AND BETA-NAPHTHOFLAVONE, Method: PREINCUBATION inactive; negative | [1] inactive; negative | Test System: MOUSE LYMPHOMA, Strain/Indicator: L5178Y (TK+/TK-), Metabolic Activation: RAT, LIVER, S-9, AROCLOR 1242 AND AROCLOR 1254 (2:1), Method: SUSPENSION/PLATE inactive; negative

Cc1cc2[nH]c3cc(C)c4ccccc4c3c2c2ccccc12
active: Test System: AMES SALMONELLA TYPHIMURIUM, Strain/Indicator: TA100, Metabolic Activation: RAT, LIVER, S-9, AROCLOR 1254, Method: STANDARD PLATE active; positive

O=C[C@H](O)[C@@H](O)[C@H](O)[C@H](O)CO
active: [1] active; positive
inactive: Test System: AMES SALMONELLA TYPHIMURIUM, Strain/Indicator: TA98, Metabolic Activation: RAT LIVER S-9, CHLOROPHENE, Method: STANDARD PLATE (COMPOUND HEATED AT 250 DEGREES CELSIUS FOR 20 MIN) inactive; negative

O=[N+]([O-])c1cccc2cc3ccccc3cc12
active: Test System: AMES SALMONELLA TYPHIMURIUM, Strain/Indicator: TA98, Metabolic Activation: NONE, Method: PREINCUBATION active; positive | Test System: AMES SALMONELLA TYPHIMURIUM, Strain/Indicator: TA98, Metabolic Activation: RAT, LIVER, S-9, AROCLOR 1254 (10%), Method: PREINCUBATION active; positive | Test System: AMES SALMONELLA TYPHIMURIUM, Strain/Indicator: TA100, Metabolic Activation: NONE, Method: PREINCUBATION active; positive | Test System: AMES SALMONELLA TYPHIMURIUM, Strain/Indicator: TA100, Metabolic Activation: RAT, LIVER, S-9, AROCLOR 1254 (10%), Method: PREINCUBATION active; positive
